Assay results from patent US11504394B2, “Targeted ionophore-based metal delivery” (The Regents of the University of California, priority 2018, dated 2022).

Legend:
[1] = Dynamic light scattering, colloidal aggregate formation; assay type: physicochemical
Protocol: To assess colloidal aggregate formation, Gal-Cu(gtsm) was dissolved in PBS (pH 7.4) to a final concentration of 1 mM. The hydrodynamic diameter (DH) of the formed colloidal particles were determined by dynamic light scattering (DLS) obtained on a Zetasizer® Nano Series (Malvern Instruments, UK) and reported as the number-weighted mean. Samples were filtered with a 0.2 μm syringe filter and measured with a disposable ZEN0040 cuvette. Peaks of varying sizes were found, indicating a polydisperse formation of Gal-Cu(gtsm) aggregates. Measurements were taken in triplicate. Error is reported as the standard deviation from three separate replicates.

SOD = SOD assay in high fat diet mice; assay type: in vivo; conditions: vs untreated HFD mice
HepG2 cells = assay: Cell viability, propidium iodide staining, HepG2; assay type: cell-based; conditions: 500 μM dose, HepG2, three hours
Protocol: (§1) Flow cytometry experiments were performed with BD LSR Fortessa Cell Analyzer in the College of Chemistry at UC Berkeley. Gains were set to include live cells based on viability experiments using propidium iodide, with dead cells via 0.1% saponin treatment as a negative control. The standard PE-A (570 nm longpass, 586/15 nm bandpass) was used. For each biological replicate, three technical replicates of 5,000 (HepG2) or 10,000 cells (HEK 293T) were counted. Flow cytometry data was processed using FlowJo (FlowJo, LLC).
(§2) HEK 293T cells were plated in 6-well plates at 60-80% confluency. After ionophore treatment at the given concentration for three hours, cells were washed with DMEM and incubated with 3 μM propidium iodide in PBS for 15 minutes, then rinsed in PBS. HEK 293T cells were mechanically removed via pipetting off the plate with 1 mL PBS and filtered through a 35 μm nylon mesh into 5 mL culture tubes for analysis. HepG2 cells were plated in 12-well plates at 60-80% confluency. […]

[2] = system: HepG2 (ASGPR-expressing) cells; assay: Cellular copper delivery by ICP-MS, HepG2; assay type: cell-based
Protocol: Cells were maintained by the UC Berkeley Tissue Culture Facility. HEK 293T and HepG2 cells were maintained as a monolayer in exponential growth at 37° C. in a 5% CO2 atmosphere. HEK 293T cells were maintained in Dulbecco's Modified Eagle Medium (DMEM, Gibco) supplemented with 10% fetal bovine serum (FBS, Hyclone), and glutamax (Gibco). HepG2 cells were maintained in low glucose DMEM with L-glutamine and sodium pyruvate (Gibco). One day before ionophore treatment, cells were passaged and plated in DMEM with glutamax supplemented with 10% FBS on either poly D-lysine-coated (HEK 293T) or gelatin-coated (HepG2) sterile 6-well Corning polystyrene plates. Cells were grown to 60 to 80% confluency prior to ionophore treatment.
Cells were washed twice with serum-free DMEM. 2 mM stock solutions of Cu(gtsm) or Gal-Cu(gtsm) were diluted in serum-free DMEM to a final ionophore concentration of 4 μM. 2 mL of vehicle (0.2% DMSO in DMEM), 4 μM Cu(gtsm), or 4 μM Gal-Cu(gtsm) were then added to the 6-well plates and incubated for three hours. For the galactose competition experiment, cells were washed twice with serum-free DMEM, then incubated with 2 mL serum-free DMEM either with or without 1 M D-galactose (Sigma Aldrich) for 15 minutes. 4 μL of DMSO, 2 mM Cu(gtsm), or 10 mM Gal-Cu(gtsm) was diluted with 300 μL of cell media, which was then mixed back into each well. Cells were then incubated for one hour. Cells were then rinsed twice with ice-cold EDTA (1 mM in 50 mM HEPES buffer, pH=7.4) to remove cell surface-bound copper and rinsed twice with ice-cold 50 mM HEPES buffer (pH=7.4), followed by the addition of 215 μL concentrated nitric acid (BDH Aristar Ultra). The plates were sealed with Parafilm and incubated on a shaker overnight. Samples (150 μL) were further diluted in 2 mL 2% nitric acid (made freshly from concentrated nitric acid and Milli-Q water) in 15 mL tubes (Sarstedt) and analyzed on a Thermo Fisher iCAP Qc ICP mass spectrometer in kinetic energy discrimination (KED) mode against a standard curve of known copper and phosphorus concentrations (CMS-5, Inorganic Ventures), with Ga (20 μg/L, Inorganic Ventures) as an internal standard. Each experiment was carried out twice and each condition was repeated in at least triplicate.

[3] = system: alanine transaminase (ALT) activity; assay: Serum alanine transaminase (ALT) assay; assay type: in vivo, mice; conditions: 6 hours, 0.75 mg Cu/kg
Protocol: Mice were immediately euthanized by cervical dislocation.
Liver lysate (TBARS Assay via TCA Method, Cayman Chemical) and serum (BUN Assay, Invitrogen; ALT Assay, Cayman Chemical) samples were processed according to manufacturer instructions; sample concentration was selected based on initial dilution screening to fall within linear range of the standard curve. All samples were analyzed in triplicate.

HEK 293T cells = assay: Cell viability, propidium iodide staining, HEK 293T; assay type: cell-based; conditions: 500 μM dose, three hours
Protocol: as §1, §2

[4] = mouse, in vivo
Protocol: FVB-luc+ mice were heavily anesthetized and blood was collected via cardiac puncture. Mice were immediately euthanized by cervical dislocation. Tissues were harvested, rinsed twice with DPBS, snap-frozen under liquid nitrogen, and placed on dry ice in cryotubes and stored at −80° C. until analysis. Serum was isolated by allowing blood samples to coagulate for 1 hour at room temperature, centrifuging at 1,500 g for 15 minutes at 4° C., then collecting the serum supernatant. Samples were aliquoted, snap-frozen, and stored at −80° C. until analysis.
20-100 mg portions of the harvested tissues were digested in concentrated nitric acid (100 mg tissue/mL HNO3, BDH Aristar Ultra) at 95° C. for 2 h in 1.5 mL tubes (Sarstedt) with small holes poked in the caps with an 18G needle. After overnight incubation at room temperature, samples were diluted into freshly prepared 2% nitric acid and doped with a gallium internal standard (Inorganic Ventures, diluted from 1 ppm in 2% nitric acid to a 20 ppb final concentration). The copper content was determined by measuring ^63Cu using a Thermo Fisher iCAP-Qc ICP-MS in Kinetic Energy Discrimination (KED) mode. Measurements were normalized to a standard curve of known copper concentrations doped with 20 ppb Ga. The standard curve was diluted from CMS-5 (Inorganic Ventures).

Compound: CNC1=N[N+]2=CC=[N+]3N=C(NCCOCCOCCOC4OC(CO)C(O)C(O)C4NC(C)=O)[S][Cu-2]23[S]1 (stereo not drawn) [Gal-Cu(gtsm)]
- number-weighted hydrodynamic diameter ([1]; 1 mM in PBS (pH 7.4), DLS, error = standard deviation): 4.60±0.69 nm
- colloid formation in aqueous buffer ([1]; aqueous buffer): forms colloids
- SOD assay, anti-oxidant activity (SOD): improved anti-oxidant activity
- ionophore toxicity (cell viability) (HepG2 cells): non-toxic
- Cu increase relative to basal levels (^63Cu/^31P) ([2]; HepG2, 4 μM, three hours, serum-free DMEM): 4 fold
- temperature dependent uptake ([2]; HepG2, 4° C. vs 37° C.): much higher uptake at 37 °C than at 4 °C
- Cu delivery in presence of D-galactose (competitive ASGPR ligand) ([2]; HepG2, D-galactose 1 M, one hour, Cu(gtsm) 4 μM, Gal-Cu(gtsm) 20 μM): significantly attenuated
- dose response of cellular copper content ([2]; HepG2, ICP-MS total copper): robust dose-dependent copper delivery response
- serum ALT levels compared to vehicle control [3]: virtually the same
- ionophore toxicity (cell viability) (HEK 293T cells): non-toxic
- hepatic copper delivered relative to Cu(gtsm) [4]: ca. 4 times
- time for hepatic copper stores to clear to basal levels ([4]; ip): 72 h
